US20250313546A1, “NUCLEIC ACID BINDERS” (UNIVERSITY OF STRATHCLYDE, priority 2022, published 2025)
In brackets after ≈: the same amount, converted by molar mass.

Key:
T. evansi AntTat 3/3 = test: Resazurin-based (Alamar blue) drug sensitivity assay; conditions: read-out: IC50 T. evansi
Procedure: (§2) A detailed description of the procedure for evaluating activity against trypanosomes, using an Alamar Blue (resazurin) assay, is described below.
(§3) The bloodstream form (BSF) T. b. brucei s427 (see De Koning, H. P. et al., Mol. Biochem. Parasitol. 2000, 106, 181-185), T. evansi AntTat 3/3 (see Dean, S. et al., Proc. Natl. Acad. Sci. USA, 2013, 110, 14741-14746), and T. equiperdum (see Stewart, M. L. et al., Eukaryot. Cell, 2010, 9, 336-343) were cultured in HMI-9 medium (Life Technologies, Paisley, United Kingdom) supplemented with 10% heat inactivated Foetal Bovine Serum (FBS (PAA Laboratories Linz, Austria)), 14 μL/L β-mercaptoethanol (BDH, Dorset, UK), and 3.0 g/L NaHCO3 (Sigma-Aldrich) and adjusted to pH 7.4. These cell lines were maintained at 37° C. in a humidified, 5% CO2 environment.
(§4) A resazurin-based (Alamar blue) drug sensitivity assay was used to assess and compare the activity of standard trypanocides in the different cell lines investigated (see Gould, M. K. et al., Anal. Biochem., 2008, 382, 87-93). Briefly, 23 doubling dilutions of the test compound of the invention, starting at 100 μM, and a compound-free control were prepared in 100 μL medium in a 96-well white plate (Greiner Bio-one, Frickenhausen, Germany). The cells were adjusted to 2×10^4 cells/mL for T. b. brucei and T. equiperdum; 4×10^4 cells/mL for T. evansi; and 5×10^5 cells/mL for T. congolense in the appropriate medium. 100 μL of the adjusted cells was then added to the wells containing drug dilutions and incubated for 48 h under respective culture condition. Thereafter, 20 μL of 125 mg/mL resazurin sodium dye was added, and the plate was incubated for a further 24 h.

C. neoformans (F10025) = conditions: Cryptococcus neoformans, read-out: MIC99 C. neoformans
[1] = test system: Human rhinovirus (HRV-14); test: Viral ToxGlo assay, Hela Ohio cells; assay type: cell-based; conditions: M-HeLa, 72 h
[2] = test system: Escherichia coli (ATCC 25922); test: Antibacterial MIC, broth microdilution (CLSI); assay type: cell-based; conditions: Escherichia coli, ATCC25922; read-out: MIC80 E. coli
[3] = test system: Staphylococcus aureus (ATCC 43300); test: Antibacterial MIC, broth microdilution (CLSI); assay type: cell-based; conditions: for S. aureus Selectivity Indices, Group: Alkyl Amidines and NH Pyrroles; for MIC80: Staphylococcus aureus, ATCC43300, read-out: MIC80 S. aureus
Candida auris (H.17.157) = conditions: for MIC99: Candidozyma auris, read-out: MIC99 Candida auris; for C. auris Selectivity Indices, Group: Alkyl Amidines and NH Pyrroles
[4] = test system: Rhizopus arrhizus (NEQAS12.35321); conditions: read-out: MIC99 Rhizopus arrhizus
[5] = test system: A. fumigatus A1160 (MFIG001); conditions: Aspergillus fumigatus, read-out: MIC99 A. fumigatus A1160
[6] = test system: Genomic double stranded DNA (salmon); test: Fluorescence intercalator displacement (FID) assay, SYBR-safe probe; conditions: 20 μM compound, 30° C., lower % = stronger binding
Summary of the method: (§1)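 Compound at 20 μM mixed with 3.76 ng/mL polyAU dsRNA or salmon genomic dsDNA and 12500-fold diluted SybrSafe in 1 mM phosphate buffer pH 7.4, then heated to 30 °C and fluorescence read. Reduction is expressed as normalised %, with nucleic acid plus probe as maximum and probe alone as minimum.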

[7] = test system: PolyAU double stranded RNA; test: as above; conditions: 20 μM compound, 30° C., lower % = stronger binding
Summary of the method: as §1

Influenza (H1N1) = test: Accelerated Viral Neuraminidase Inhibition Assay (AVINA), A549 cells; assay type: cell-based; conditions: Influenza A virus, 72 h
T. equiperdum = test: Resazurin-based (Alamar blue) drug sensitivity assay; conditions: Trypanosoma equiperdum, read-out: IC50 T. equiperdum
Procedure: as §2, §3, §4

[8] = test system: SARS-CoV-2 (hCoV-19/Australia/VIC01/2020); test: SARS-CoV-2 microplaque inhibition assay in Vero-E6 cells; assay type: cell-based; conditions: for IC50: Severe acute respiratory syndrome coronavirus 2, Vero C1008, plaque inhibition, Vero-E6 cells, read-out: IC50 SARS-CoV-2
[9] = test system: Enterococcus faecalis (ATCC 51299); test: Antibacterial MIC, broth microdilution (CLSI); assay type: cell-based; conditions: for MIC80: Enterococcus faecalis, ATCC51299, read-out: MIC80 E. faecalis; for E. faecalis Selectivity Indices, Group / E. faecalis Selectivity Index (SI): SI, IC50 (μM)/MIC80 (μM), HEK293 cytotoxicity; for E. faecalis Selectivity Indices, Group: Alkyl Amidines and NH Pyrroles; for E. faecalis Selectivity Index (SI): numeric value
[10] = test system: Candida glabrata (ACPF3309); conditions: for MIC99: Nakaseomyces glabratus, read-out: MIC99 Candida glabrata
T. vaginalis = test: Trichomonas resorufin assay; assay type: cell-based; conditions: for T. vaginalis Selectivity Indices, Group / T. vaginalis Selectivity Index (SI): SI, IC50 (μM)/IC50 (μM), HEK293 cytotoxicity; for T. vaginalis Selectivity Index (SI): numeric value; for IC50: Trichomonas vaginalis, read-out: IC50 T. vaginalis
[11] = test system: human respiratory syncytial virus (RSV A2); test: Viral ToxGlo assay, Hep-2 cells; assay type: cell-based; conditions: 72 h
[12] = SI, IC50 (μM)/MIC80 (μM), HEK293 cytotoxicity
[13] = SI, IC50 (μM)/MIC99 (μg/mL), HEK293 cytotoxicity

Compound	MIC99 (C. neoformans (F10025))	inhibition at 20 µM [1]	MIC80 [2]	S. aureus Selectivity Indices, Group [3, 12]	MIC80 [3]	MIC99 (Candida auris (H.17.157))	MIC99 [4]	MIC99 [5]	% Normalised Fluorescence with gDNA [6]	% Normalised Fluorescence with polyAU RNA [7]	inhibition at 20 µM (Influenza (H1N1))	MIC80 [9]	E. faecalis Selectivity Indices, Group [9]	MIC99 [10]	T. vaginalis Selectivity Indices, Group (T. vaginalis; Alkyl Amidines and NH Pyrroles)	T. vaginalis Selectivity Index (SI) (T. vaginalis)	IC50 (T. vaginalis)	inhibition at 20 µM [11]	other results
CN(C)c1ccc(/C=C/c2ccc(C(=O)Nc3c[nH]c(C(=O)Nc4c[nH]c(C(=O)NCCC(=N)N)c4)c3)cn2)cc1 [IIIa9, (E)-N-(5-((5-((3-amino-3-iminopropyl)carbamoyl)-1H-pyrrol-3-yl)carbamoyl)-1H-pyrrol-3-yl)-6-(4-(dimethylamino)styryl)nicotinamide]	< 5 µg/mL	25 to 50%	25 to 100 µM (≈ 13.8 to 55.4 µg/mL)	C (Group C: 5 < SI <= 10)	5 to 25 µM (≈ 2.77 to 13.8 µg/mL)	5 to 25 µg/mL (≈ 9.03 to 45.2 µM)	5 to 25 µg/mL (≈ 9.03 to 45.2 µM)	5 to 25 µg/mL (≈ 9.03 to 45.2 µM)	16%	24%	10 to 25%	5 to 25 µM (≈ 2.77 to 13.8 µg/mL)	C (Group C: 5 < SI <= 10)	< 5 µg/mL	–	–	–	–	IC50 (T. evansi AntTat 3/3): 0.1 to 1 µM; C. auris Selectivity Indices, Group (Candida auris (H.17.157); [13]): D (Group D SI > 3); C. auris Selectivity Index (SI) (Candida auris (H.17.157); SI, IC50 (μM)/MIC99 (μg/mL), HEK293 cytotoxicity, numeric value): 6; IC50 (T. equiperdum): > 1 µM; SARS-CoV-2 Selectivity Indices, Group ([8]; SI, IC50 (μM)/IC50 (μM), HEK293 cytotoxicity, Alkyl Amidines and NH Pyrroles): D (Group D: SI > 25); SARS-CoV-2 Selectivity Index (SI) ([8]; SI, IC50 (μM)/IC50 (μM), HEK293 cytotoxicity, numeric value): 33; IC50 [8]: < 2 µM; C. glabrata Selectivity Indices, Group ([10]; SI, IC50 (μM)/MIC99 (μg/mL), HEK293 cytotoxicity, Alkyl Amidines and NH Pyrroles): C (Group C 20 < SI <= 50)
CC/N=C(\N)CCNC(=O)c1cc(NC(=O)c2cc(NC(=O)c3ccc(/C=C/c4cnc5ccccc5c4)cc3)cn2C)cn1C [Ia14, N—((Z)-3-amino-3-(ethylimino)propyl)-1-methyl-4-(1-methyl-4-(4-((E)-2-(quinolin-3-yl)vinyl)benzamido)-1H-pyrrole-2-carboxamido)-1H-pyrrole-2-carboxamide]	5 to 25 µg/mL (≈ 8.11 to 40.5 µM)	–	> 100 µM	D (D: SI > 10)	< 5 µM	> 50 µg/mL	> 50 µg/mL	> 50 µg/mL	2%	6%	< 10%	< 5 µM	D (D: SI > 10)	5 to 25 µg/mL (≈ 8.11 to 40.5 µM)	D (Group D: SI > 32)	35	< 1 µM	10 to 25%	S. aureus Selectivity Index (SI) ([3]; SI, IC50 (μM)/MIC80 (μM), HEK293 cytotoxicity, numeric value): 44; E. faecalis Selectivity Index (SI) [9]: 11
CC(C)NC(=N)CCNC(=O)c1cc(NC(=O)c2cc(NC(=O)c3ccc(/C=C/c4cnc5ccccc5c4)cc3)cn2C)cn1C [Ia21, (E)-N-(3-imino-3-(isopropylamino)propyl)-1-methyl-4-(1-methyl-4-(4-(2-(quinolin-3-yl)vinyl)benzamido)-1H-pyrrole-2-carboxamido)-1H-pyrrole-2-carboxamide]	> 50 µg/mL	> 50%	> 100 µM	–	< 5 µM	25 to 50 µg/mL (≈ 39.6 to 79.3 µM)	5 to 25 µg/mL (≈ 7.93 to 39.6 µM)	5 to 25 µg/mL (≈ 7.93 to 39.6 µM)	3%	2%	25 to 50%	< 5 µM	–	< 5 µg/mL	D (Group D: SI > 32)	41	< 1 µM	25 to 50%	C. auris Selectivity Indices, Group (Candida auris (H.17.157); [13]): B (Group B: 0.4 < SI <= 1)
CC(C)/N=C(\N)CCNC(=O)c1cc(NC(=O)c2cc(NC(=O)c3ccc(/C=C/c4ccc5nonc5c4)cc3)cn2C)cn1C [Ia13, N—((Z)-3-amino-3-(isopropylimino)propyl)-4-(4-(4-((E)-2-(benzo[c][1,2,5]oxadiazol-5-yl)vinyl)benzamido)-1-methyl-1H-pyrrole-2-carboxamido)-1-methyl-1H-pyrrole-2-carboxamide]	5 to 25 µg/mL (≈ 8.04 to 40.2 µM)	25 to 50%	> 100 µM	C (Group C: 5 < SI <= 10)	5 to 25 µM (≈ 3.11 to 15.5 µg/mL)	–	–	> 50 µg/mL	2%	3%	> 50%	< 5 µM	D (D: SI > 10)	25 to 50 µg/mL (≈ 40.2 to 80.4 µM)	C (Group C: 16 < SI <= 32)	17	1 to 5 µM	> 50%	IC50 [8]: 8 to 32 µM; E. faecalis Selectivity Index (SI) [9]: 12
CN(C)c1ccc(/C=C/c2ccc(C(=O)Nc3c[nH]c(C(=O)Nc4c[nH]c(C(=O)NCCN5CCOCC5)c4)c3)cn2)cc1 [IIIb7, (E)-6-(4-(dimethylamino)styryl)-N-(5-((5-((2-morpholinoethyl)carbamoyl)-1H-pyrrol-3-yl)carbamoyl)-1H-pyrrol-3-yl)nicotinamide]	–	10 to 25%	> 100 µM	B (Group B: 3 < SI <= 5)	5 to 25 µM (≈ 2.98 to 14.9 µg/mL)	–	–	–	63%	44%	–	> 100 µM	–	–	–	–	–	–	–
COCCOCCOCCNC(=O)c1cc(NC(=O)c2cc(NC(=O)c3ccc(/C=C/c4cnc5ccccc5c4)cc3)cn2C)cn1C [IVa8, (E)-N-(2-(2-(2-methoxyethoxy)ethoxy)ethyl)-1-methyl-4-(1-methyl-4-(4-(2-(quinolin-3-yl)vinyl)benzamido)-1H-pyrrole-2-carboxamido)-1H-pyrrole-2-carboxamide]	–	25 to 50%	> 100 µM	–	5 to 25 µM (≈ 3.32 to 16.6 µg/mL)	–	–	–	70%	94%	10 to 25%	5 to 25 µM (≈ 3.32 to 16.6 µg/mL)	–	–	–	–	5 to 50 µM	10 to 25%	T. vaginalis Selectivity Indices, Group (T. vaginalis; Amides): B (Group B: 0.25 < SI <= 0.5)
[H]/N=C(\CCNC(=O)c1cc(NC(=O)c2cc(NC(=O)c3ccc(C=Cc4ccc(C#N)cc4)cc3)cn2C)cn1C)NCC [Ia16, (E)-4-(4-(4-cyanostyryl)benzamido)-N-(5-((3-(ethylamino)-3-iminopropyl)carbamoyl)-1-methyl-1H-pyrrol-3-yl)-1-methyl-1H-pyrrole-2-carboxamide]	5 to 25 µg/mL (≈ 8.46 to 42.3 µM)	–	> 100 µM	–	25 to 100 µM (≈ 14.8 to 59.1 µg/mL)	–	–	> 50 µg/mL	31%	27%	25 to 50%	5 to 25 µM (≈ 2.95 to 14.8 µg/mL)	B (Group B: 3 < SI <= 5)	25 to 50 µg/mL (≈ 42.3 to 84.6 µM)	–	–	5 to 50 µM	25 to 50%	–
[H]/N=C(\CCNC(=O)c1cc(NC(=O)c2cc(NC(=O)c3ccc(C=Cc4ccc(C#N)cc4)cc3)cn2C)cn1C)NC(C)C [Ia17, (E)-4-(4-(4-cyanostyryl)benzamido)-N-(5-((3-imino-3-(isopropylamino)propyl)carbamoyl)-1-methyl-1H-pyrrol-3-yl)-1-methyl-1H-pyrrole-2-carboxamide]	> 50 µg/mL	–	> 100 µM	–	25 to 100 µM (≈ 15.1 to 60.5 µg/mL)	–	–	> 50 µg/mL	13%	28%	10 to 25%	25 to 100 µM (≈ 15.1 to 60.5 µg/mL)	–	25 to 50 µg/mL (≈ 41.3 to 82.7 µM)	–	–	5 to 50 µM	10 to 25%	–
CC(C)=CCC/C(C)=C/CNC(=O)c1cc(NC(=O)c2cc(NC(=O)c3ccc(/C=C/c4cnc5ccccc5c4)cc3)cn2C)cn1C [IVa10, N—((E)-3,7-dimethylocta-2,6-dien-1-yl)-1-methyl-4-(1-methyl-4-(4-((E)-2-(quinolin-3-yl)vinyl)benzamido)-1H-pyrrole-2-carboxamido)-1H-pyrrole-2-carboxamide]	> 50 µg/mL	> 50%	> 100 µM	–	5 to 25 µM (≈ 3.27 to 16.4 µg/mL)	–	–	25 to 50 µg/mL (≈ 38.2 to 76.4 µM)	–	–	10 to 25%	25 to 100 µM (≈ 16.4 to 65.5 µg/mL)	–	5 to 25 µg/mL (≈ 7.64 to 38.2 µM)	–	–	5 to 50 µM	> 50%	–
